Earlier results as cited in patent CN103919735A, “一种盐酸坦索罗辛缓释微丸及其制备方法” (Pharmaceutical (wuhan) Co Ltd, priority 2014, dated 2014).

System: BPH patients [BPH患者]
Settings: for relief of LUTS caused by BPH (in words): large number of studies

Compound	relief of LUTS caused by BPH (in words)	efficacy in long-term use (in words) (clinical study of 6 years in BPH, stated for α1 receptor blockers)	time to symptom improvement after treatment (clinical, BPH) [h]
CC(C)(C)NC(=O)[C@H]1CC[C@H]2[C@@H]3CC[C@H]4NC(=O)C=C[C@]4(C)[C@H]3CC[C@]12C [非那雄胺]	均能有效缓解		
CCOc1ccccc1OCCN[C@H](C)Cc1ccc(OC)c(S(N)(=O)=O)c1 [盐酸坦索罗辛]	均能有效缓解	能够维持稳定的疗效	48
